Residues, ends and D or L forms follow the SMILES beside them. *: point of attachment. Cbz = O=C(OCc1ccccc1)*
What was measured:
clinical PCLS tissues = assay: FPS/PLS response (CES, nCounter) in organotypic ex vivo culture of clinical PCLS tissues; format: cell-based, human; details: for FPS response rate (number of responding patients): count of patients with CES-based FPS response; for FPS response rate (number of responding patients) / FPS response rate: PCLS cultured 24 h with agent vs vehicle; for PLS response rate (number of responding patients): count of patients with PLS response; for PLS response rate (number of responding patients) / PLS response rate: ex vivo PCLS culture; for modulation of SLC7A1 (CAT1): drug-level FPS gene modulation in ex vivo PCLS culture; for FPS response rate: percent of patients tested with CES-based FPS response; for PLS response rate: percent of patients tested with PLS response
From the text: (§1) Evaluation of galunisertib, erlotinib, AM095, bortezomib, pioglitazone, metformin, epigallocatechin gallate (EGCG), I-BET 151, JQ1, captopril, nizatidine (Selleck Chemicals); MG-132 (Sigma-Aldrich); cenicriviroc (AbbVie) (Table 2) were done in organotypic ex vivo culture of precision-cut liver slice (PCLS) tissues in the FPS validation set 2 as previously described. Patient-derived liver cell spheroids were generated from a cirrhosis patient and high-risk FPS was induced by free fatty acids, and treated with EGCG, bortezomib, cenicriviroc, and/or bezafibrate for 48 h. Mycoplasma-free human hepatic myofibroblast cell lines, LX-2 and TWNT-4, were cultured with MG-132 (20 μM) or DMSO control for 12 and 24 h in triplicates.
(§2) Total RNA was isolated from fixed tissue sections by using High Pure RNA Paraffin kit (Roche), and assessed for quality by qRT-PCR of RPL13A. Total RNA from the PCLS tissues was isolated using RNeasy kit (Qiagen). RNA samples (100-200 ng) were subjected to the PLS/FPS assay implemented in the nCounter platform (NanoString), and transcriptome profiling of the CENTAUR trial samples was performed by RNA-Seq (TrueSeq RNA Access, Illumina). Expression of BCL2, COL1A1, and ACTA2 genes was measured by qRT-PCR (Table 3). Serum protein profiling was performed by using xMAP assay (Luminex).
Total RNA was isolated from three to five 10-μm-thick formalin-fixed paraffin-embedded (FFPE) tissue sections from the PLS/FPS derivation/validation cohorts by using High Pure RNA Paraffin kit (Roche), and lack of severe RNA fragmentation was confirmed by qRT-PCR of a housekeeping gene RPL13A as previously described.^1 From freshly harvested myofibroblast cell lines, LX-2 and TWNT-4, and clinical precision-cut-liver slice (PCLS) tissues stored in RNAlater (ThermoFisher) at −80?C, total RNA was isolated using RNeasy kit (Qiagen), and the RNA integrity number (RIN)>8 by Bioanalyzer (Agilent) was regarded as sufficient quality for expression analysis. Total RNA samples (100 to 500 ng) were subjected to the gene signature assays implemented in the digital transcript counting technology (NanoString) according to manufacturer's instruction. Poor quality profiles were detected based on maximum signal intensity from positive control probes <3,000U. Raw transcript count data were log-transformed (base 2) and scaled by geometric mean of control probe data by using NanoString normalizer module implemented in GenePattern data analysis suite (www.broadinstitute.org/genepattern). Genome-wide transcriptome profiling of the CENTAUR trial samples was performed using 100 to 200 ng total RNA by RNA-Seq using exome-enriched library preparation according to the manufacturer's protocol (TrueSeq, Illumina). Raw sequencing reads were mapped onto the reference human genome (hg19) by using the STAR aligner (ver. 2.6.1b) followed by the read counting on genes via featureCounts in the Subread package (ver. 1.6.1). The raw read counts were further normalized by using the Relative Log Expression (RLE) implemented in the DESeq2 package (ver. 1.22.2). Expression of COL1A1, and ACTA2, and BCL2 genes was measured by qRT-PCR (BioRad) using ddCt method with RPL13A as housekeeping gene, as previously described (refer Table 3 for the primer sequences). Gene expression profiles of the PLS/FPS-inducible cell culture model (cell-culture-derived PLS [cPLS] system) treated with erlotinib, pioglitazone, captopril, and resveratrol were obtained from our previous study (GSE81801).

[1] = system: biliary fibrosis induced by bile duct ligation; details: bile duct ligation in mice; cited from earlier work
[2] = system: PCLS tissue from a chronic hepatitis C patient with F2 fibrosis; assay: Validation of combination therapies by liver fibrosis gene panel in ex vivo culture of a clinical fibrotic PCLS tissue; format: cell-based, human; details: agent added to EGCG
From the text: as §1
To test this idea, synergistic effect of the agents to shift the FPS from high- to low-risk pattern was computationally inferred, i.e., suppression of the high-risk genes and/or induction of the low-risk genes (see materials and methods).

[3] = system: human precision-cut liver slice (PCLS); assay: MG-132 effect on COL1A1, ACTA2 and BCL2 expression (qRT-PCR) in ex vivo PCLS culture; format: cell-based; details: PCLS from two patients, HCV (F1) and NAFLD (F2); vs DMSO
From the text: as §1
as §2, with “(Luminex). […]” for “(Luminex).”

clinical PCLS tissue = assay: Immunostaining of cleaved caspase-3, alpha-SMA and GFAP in PCLS tissues cultured with MG-132 or DMSO; format: cell-based, human; details: PCLS tissues cultured with MG-132 vs DMSO, five patients
Protocol: FIG. 4A depicts a co-expression gene network defined in the FPS derivation set 1 to 4. Hub genes are indicated with larger nodes. Synthesized association with time to fibrosis progression (Fisher's inverse chi-square statistic) in the FPS derivation set 1 and 2 is shown by red (poor outcome) to blue (good outcome) color scale. […] All assays were performed in triplicates. Green dotted line indicates expression level of the DMSO-treated control. […] Paired tissues from the same patient are connected with a line. Wilcoxon signed-rank test p-value is shown. […] Scale bars indicate 50 μm and 25 μm for upper and lower panels, respectively. […] Scale bars indicate 100 μm. […] NES: normalized enrichment score. FDR: false discovery rate.
Immunostaining was performed for caspase-3 (Asp175) (5A1E, Cell Signaling), alpha-SMA (Abcam), Desmin (DAKO), GFAP (abcam), and Ki-67 (Abcam). TUNEL staining was performed using ApopTag Peroxidase In Situ Apoptosis Detection Kit (EMD Millipore).

LX-2 = assay: MG-132 effect on COL1A1, ACTA2 and BCL2 expression (qRT-PCR) in LX-2; format: cell-based, human; details: MG-132 20 μM vs DMSO, 12 and 24 h
From the text: as §1
as §2, with “(Luminex). […]” for “(Luminex).”

TWNT-4 = assay: MG-132 effect on COL1A1, ACTA2 and BCL2 expression (qRT-PCR) in TWNT-4; format: cell-based, human; details: MG-132 20 μM vs DMSO, 12 and 24 h
From the text: as §1
as §2, with “(Luminex). […]” for “(Luminex).”

Row | Structure (SMILES) | FPS response rate (number of responding patients) (clinical PCLS tissues) | PLS response rate (number of responding patients) (clinical PCLS tissues) | modulation of SLC7A1 (CAT1) (clinical PCLS tissues) | also measured
1 | Cc1noc(-c2ccc(-c3ccc(CC(=O)O)cc3)cc2)c1NC(=O)O[C@H](C)c1ccccc1 [AM095] | 11 | 8 | similarly striking suppression | FPS response rate (clinical PCLS tissues): 38%; PLS response rate (clinical PCLS tissues): 27.59%
2 | CC(C)C[C@H](NC(=O)[C@H](Cc1ccccc1)NC(=O)c1cnccn1)B(O)O [Bortezomib] | 4 | 5 |  | myofibroblast activation and biliary fibrosis [1]: reduced myofibroblast activation and inhibit biliary fibrosis; expression of genes encoding extracellular matrix proteins (COL1A1, HAS2) and fibrogenic drivers (PDGFRB, TGFB1, NOTCH1, LPAR1) [2]: substantially reduced expression
3 | O=C(O[C@@H]1Cc2c(O)cc(O)cc2O[C@@H]1c1cc(O)c(O)c(O)c1)c1cc(O)c(O)c(O)c1 [Epigallocatechin gallate] | 7 | 9 |  | FPS response rate (clinical PCLS tissues): 64%; PLS response rate (clinical PCLS tissues): 81.82%
4 | C#Cc1cccc(Nc2ncnc3cc(OCCOC)c(OCCOC)cc23)c1 [Erlotinib] | 11 | 13 |  | 
5 | Cc1cccc(-c2nn3c(c2-c2ccnc4ccc(C(N)=O)cc24)CCC3)n1 [Galunisertib] | 6 | 7 | similarly striking suppression | 
6 | CC(C)C[C@@H](C=O)NC(=O)[C@H](CC(C)C)NC(=O)[C@H](CC(C)C)NC(=O)OCc1ccccc1 [MG132] (Cbz-Leu-Leu-Leu-aldehyde) | 6 | 3 |  | myofibroblast activation and biliary fibrosis [1]: reduced myofibroblast activation and inhibit biliary fibrosis; modulation of high-risk FPS genes (gene set enrichment analysis) (clinical PCLS tissues; clinical fibrotic PCLS tissues, ex vivo MG-132, FDR≤0.008): significantly suppressed; expression of COL1A1, ACTA2 and BCL2 [3]: reduced expression; cleaved-caspase-3-positive cells (apoptosis induction) (clinical PCLS tissue): increased; expression of genes encoding extracellular matrix proteins (COL1A1, HAS2) and fibrogenic drivers (PDGFRB, TGFB1, NOTCH1, LPAR1) [2]: substantially reduced expression; expression of COL1A1, ACTA2 and BCL2 (LX-2): suppression; expression of COL1A1, ACTA2 and BCL2 (TWNT-4): suppression
7 | CN(C)C(=N)N=C(N)N [Metformin] | 7 | 6 | similarly striking suppression | 
8 | CNC(=C[N+](=O)[O-])NCCSCc1csc(CN(C)C)n1 [Nizatidine] | 3 | 3 |  | 
9 | CCc1ccc(CCOc2ccc(CC3SC(=O)NC3=O)cc2)nc1 (stereo not shown) [Pioglitazone] | 6 | 7 |  | 

Reference: patent US20260185169A1, “MOLECULAR SIGNATURES TO PREDICT LONG-TERM LIVER FIBROSIS PROGRESSION” (THE BOARD OF REGENTS OF THE UNIVERSITY OF TEXAS SYSTEM, priority 2022, published 2026)
